This experiment concerns the target human anti-Rha IgM. Description: Competitive ELISA: inhibition of human anti-Rha IgM binding to PAA-Rha coated wells. To be noted: indirect competitive ELISA; human serum 20 %; PAA-Rha coating 5 μg mL^−1; 1 h at 37 °C; Alexa-Fluor488 goat anti-human IgM (1:400), fluorescence Ex 488/Em 530 nm; average of three independent experiments; read-out: IC50, inhibition of binding of human anti-Rha IgM to Rha coated wells (monovalent control). The protocol: We next performed enzyme‐linked immunosorbent assay (ELISA)‐type studies to evaluate the ability of glycoconjugates 3 and 6 to bind natural Abs. Microtiter plates were first coated with a commercial Rha‐functionalized poly[N‐(2‐hydroxyethyl)acrylamide] polymer (PAA‐Rha) and incubated with human serum, a source of anti‐Rha antibodies, then fluorescent goat anti‐human IgM and IgG. […] This observation is in good agreement with previous studies showing strong ratio variations of circulating antibodies in human sera.15, 16 A competitive assay was next performed with glycoconjugates 3 and 6 as inhibitors and Rha as the monovalent control (Figure 1). […]
The ability of the ABMs to recruit anti‐Rha antibodies present in human serum (HS) was evaluated by an indirect competitive ELISA binding study. […] The fluorescence has been measured by using an Omega BMG LABTECH plate reader (Ex: 488 nm/ Em: 530 nm). The percentage of binding inhibition of the human anti‐Rha IgM antibody to the rhamnose‐coated microplate was calculated by using the formula: inhibition (%)=((F max−F)/F max)×100. F max corresponds to the mean value of the higher fluorescence limit reached in the dilution series of each rhamnose conjugate whereas F is the fluorescence red for each concentration of the compound tested. The fluorescence values used in this formula were an average of triplicate experiments. […]
On the technique in general: An ELISA detects its analyte on a solid surface through an enzyme-linked reagent.

In the case of `C[C@H](O)[C@H](O)[C@@H](O)[C@@H](O)C=O` [Rha, L‐rhamnose], the IC50 (as a rule, the concentration at which inhibition is half-maximal) came out at 1200 µM.

For the origin of these results see paper PMC6916168, “Multifunctional Glycoconjugates for Recruiting Natural Antibodies against Cancer Cells” (Chemistry (Weinheim an Der Bergstrasse, Germany), 2019).
